From patent publication US5086050A, “Method of treating inflammatory disorders and psoriasis with salts of azelastine” (priority 1989, dated 1992)
Where a name gives a salt, the structure may show the parent alone. Read-outs that look alike come from different tables or passages of the source. Blank lines part the entries; values can stand above or below the compound they belong to.

How the values were obtained:
Assay type in all cases: physicochemical
[1] = Solubility in water at 20° C. (azelastine and previously known salts)
[2] = Solubility in water at room temperature (salts of the invention)
[3] = Solubility and pH value of the aqueous solution on addition of excess acid
Text: Addition of excess amounts of acid increases the solubility of the salts. For example a 1-fold, preferably a 0.5-fold, in particular a 0.25-fold excess of acid may be used.
For example, the addition of acids yields the following solubility and following pH value of the aqueous solution: […]

[4] = aqueous solution, excess acid 0 mol
[5] = aqueous solution, excess acid 0.1 mol
[6] = aqueous solution, excess acid 0.25 mol

Compound: CN1CCCC(n2nc(Cc3ccc(Cl)cc3)c3ccccc3c2=O)CC1 (stereo not drawn) [Azelastine, 4-(4-chlorobenzyl)-2-(perhydro-1methylazepine-4-yl)-1-(2H) phthalazinone]
- Solubility in water [1]: 0.005%

Compound: CN1CCCC(n2nc(Cc3ccc(Cl)cc3)c3ccccc3c2=O)CC1 (stereo not drawn) [gluconate, azelastine gluconate]
- Solubility in water [2]: up to 55%
- pH value ([3]; aqueous solution, excess acid 0.5 mol): 4.5
- Solubility ([3]; aqueous solution, excess acid 0.5 mol, read-out: Solubility): 100 mg/mL

Compound: CN1CCCC(n2nc(Cc3ccc(Cl)cc3)c3ccccc3c2=O)CC1 (stereo not drawn) [lactate, azelastine lactate]
- Solubility in water [2]: more than 10%
- pH value [3, 4]: 5.15
- pH value [3, 5]: 4.6
- pH value [3, 6]: 4.1
- Solubility ([3]; excess acid 0 mol): 3%
- Solubility ([3]; excess acid 0.1 mol): 5%
- Solubility ([3]; excess acid 0.25 mol): 10%

Compound: CN1CCCC(n2nc(Cc3ccc(Cl)cc3)c3ccccc3c2=O)CC1 (stereo not drawn) [fumarate]
- Solubility in water [1]: under 1%

Compound: CN1CCCC(n2nc(Cc3ccc(Cl)cc3)c3ccccc3c2=O)CC1 (stereo not drawn) [toluene sulphonate]
- Solubility in water [1]: under 1%

Compound: CN1CCCC(n2nc(Cc3ccc(Cl)cc3)c3ccccc3c2=O)CC1 (stereo not drawn) [hydrochloride]
- Solubility in water [1]: 1%

Compound: CN1CCCC(n2nc(Cc3ccc(Cl)cc3)c3ccccc3c2=O)CC1 (stereo not drawn) [acetate, azelastine acetate]
- Solubility in water [2]: more than 10%
- pH value [3, 4]: 6.35
- pH value [3, 5]: 5.52
- Solubility ([3]; aqueous solution, excess acid 0.1 mol, read-out: Solubility): 30 mg/mL
- pH value [3, 6]: 5.1
- Solubility ([3]; aqueous solution, excess acid 0.25 mol, read-out: Solubility): 100 mg/mL
- Solubility ([3]; excess acid 0 mol): 2%

Compound: CN1CCCC(n2nc(Cc3ccc(Cl)cc3)c3ccccc3c2=O)CC1 (stereo not drawn) [benzene sulphonate]
- Solubility in water [1]: under 1%

Compound: CN1CCCC(n2nc(Cc3ccc(Cl)cc3)c3ccccc3c2=O)CC1 (stereo not drawn) [embonate]
- Solubility in water [1]: 0.0015%

The remaining lines, values ahead:

- Solubility in water [1]: ca. 1%
Compound: CN1CCCC(n2nc(Cc3ccc(Cl)cc3)c3ccccc3c2=O)CC1 (stereo not drawn) [phosphate]

- Solubility in water [2]: 3%
- pH value [3, 4]: 3.85
- Solubility ([3]; excess acid 0 mol): 5%
Compound: CN1CCCC(n2nc(Cc3ccc(Cl)cc3)c3ccccc3c2=O)CC1 (stereo not drawn) [malate, azelastine malate]

- Solubility in water [1]: ca. 1%
Compound: CN1CCCC(n2nc(Cc3ccc(Cl)cc3)c3ccccc3c2=O)CC1 (stereo not drawn) [methane sulphonate]

- Solubility in water [1]: ca. 1%
Compound: CN1CCCC(n2nc(Cc3ccc(Cl)cc3)c3ccccc3c2=O)CC1 (stereo not drawn) [succinate]

- Solubility in water [1]: ca. 1%
Compound: CN1CCCC(n2nc(Cc3ccc(Cl)cc3)c3ccccc3c2=O)CC1 (stereo not drawn) [maleate]
